Results on 36 compounds are retold here after patent US9012443B2 (Amgen Inc., priority 2011, dated 2015).

Several values for one entry are separate records, joined by “and”; a condition that tells them apart may be missing. Equal entries are not always repeated. Where two headings read alike, the source gives them in different places. Bounds are passed on as bounds.

By IC50 is commonly meant the concentration needed to halve the response being measured.

For this experiment, the target named is Nav 1.7 (Homo sapiens (Human), UniProt Q15858). In words: Nav 1.7 IWQ in vitro assay (IonWorks Quattro population patch-clamp). Format: cell-based. The settings on record: for IC50: 293 cells stably transfected with Nav 1.7. How it is done:
Nav 1.7 or Nav 1.5 IWQ In Vitro Assay
293 Cells stably transfected with either Nav 1.7 or Nav 1.5 were recorded in population patch-clamp mode with the IonWorks® Quattro automated electrophysiology system in accordance with the manufacturer's specifications (Molecular Devices, LLC, Sunnyvale, Calif.). Sodium channel currents were measured in response to a train of depolarizations that induced successively greater inactivation.
Cells were then left unclamped for a period of 3 to 8 minutes while a single concentration of test compound was added. Cells were then reclamped and put through the same voltage protocol. Current at the end of the 26th pulse to −20 mV was subtracted from the peak current evoked by the 26th pulse to −20 mV to correct for leak current. Percent block was calculated for each concentration in duplicate, and IC50 curves were fitted to percent block as a function of concentration.
For orientation: In patch-clamp work, channel activity is measured electrically.

Where [1] appears, read: first part of table, read-out: Nav 1.7 IWQ IC50.
The mark [2] stands for this setting: second part of table, read-out: Nav1.7 IWQ IC50 IP.

Chain of Nav 1.7 (Q15858 whole entry): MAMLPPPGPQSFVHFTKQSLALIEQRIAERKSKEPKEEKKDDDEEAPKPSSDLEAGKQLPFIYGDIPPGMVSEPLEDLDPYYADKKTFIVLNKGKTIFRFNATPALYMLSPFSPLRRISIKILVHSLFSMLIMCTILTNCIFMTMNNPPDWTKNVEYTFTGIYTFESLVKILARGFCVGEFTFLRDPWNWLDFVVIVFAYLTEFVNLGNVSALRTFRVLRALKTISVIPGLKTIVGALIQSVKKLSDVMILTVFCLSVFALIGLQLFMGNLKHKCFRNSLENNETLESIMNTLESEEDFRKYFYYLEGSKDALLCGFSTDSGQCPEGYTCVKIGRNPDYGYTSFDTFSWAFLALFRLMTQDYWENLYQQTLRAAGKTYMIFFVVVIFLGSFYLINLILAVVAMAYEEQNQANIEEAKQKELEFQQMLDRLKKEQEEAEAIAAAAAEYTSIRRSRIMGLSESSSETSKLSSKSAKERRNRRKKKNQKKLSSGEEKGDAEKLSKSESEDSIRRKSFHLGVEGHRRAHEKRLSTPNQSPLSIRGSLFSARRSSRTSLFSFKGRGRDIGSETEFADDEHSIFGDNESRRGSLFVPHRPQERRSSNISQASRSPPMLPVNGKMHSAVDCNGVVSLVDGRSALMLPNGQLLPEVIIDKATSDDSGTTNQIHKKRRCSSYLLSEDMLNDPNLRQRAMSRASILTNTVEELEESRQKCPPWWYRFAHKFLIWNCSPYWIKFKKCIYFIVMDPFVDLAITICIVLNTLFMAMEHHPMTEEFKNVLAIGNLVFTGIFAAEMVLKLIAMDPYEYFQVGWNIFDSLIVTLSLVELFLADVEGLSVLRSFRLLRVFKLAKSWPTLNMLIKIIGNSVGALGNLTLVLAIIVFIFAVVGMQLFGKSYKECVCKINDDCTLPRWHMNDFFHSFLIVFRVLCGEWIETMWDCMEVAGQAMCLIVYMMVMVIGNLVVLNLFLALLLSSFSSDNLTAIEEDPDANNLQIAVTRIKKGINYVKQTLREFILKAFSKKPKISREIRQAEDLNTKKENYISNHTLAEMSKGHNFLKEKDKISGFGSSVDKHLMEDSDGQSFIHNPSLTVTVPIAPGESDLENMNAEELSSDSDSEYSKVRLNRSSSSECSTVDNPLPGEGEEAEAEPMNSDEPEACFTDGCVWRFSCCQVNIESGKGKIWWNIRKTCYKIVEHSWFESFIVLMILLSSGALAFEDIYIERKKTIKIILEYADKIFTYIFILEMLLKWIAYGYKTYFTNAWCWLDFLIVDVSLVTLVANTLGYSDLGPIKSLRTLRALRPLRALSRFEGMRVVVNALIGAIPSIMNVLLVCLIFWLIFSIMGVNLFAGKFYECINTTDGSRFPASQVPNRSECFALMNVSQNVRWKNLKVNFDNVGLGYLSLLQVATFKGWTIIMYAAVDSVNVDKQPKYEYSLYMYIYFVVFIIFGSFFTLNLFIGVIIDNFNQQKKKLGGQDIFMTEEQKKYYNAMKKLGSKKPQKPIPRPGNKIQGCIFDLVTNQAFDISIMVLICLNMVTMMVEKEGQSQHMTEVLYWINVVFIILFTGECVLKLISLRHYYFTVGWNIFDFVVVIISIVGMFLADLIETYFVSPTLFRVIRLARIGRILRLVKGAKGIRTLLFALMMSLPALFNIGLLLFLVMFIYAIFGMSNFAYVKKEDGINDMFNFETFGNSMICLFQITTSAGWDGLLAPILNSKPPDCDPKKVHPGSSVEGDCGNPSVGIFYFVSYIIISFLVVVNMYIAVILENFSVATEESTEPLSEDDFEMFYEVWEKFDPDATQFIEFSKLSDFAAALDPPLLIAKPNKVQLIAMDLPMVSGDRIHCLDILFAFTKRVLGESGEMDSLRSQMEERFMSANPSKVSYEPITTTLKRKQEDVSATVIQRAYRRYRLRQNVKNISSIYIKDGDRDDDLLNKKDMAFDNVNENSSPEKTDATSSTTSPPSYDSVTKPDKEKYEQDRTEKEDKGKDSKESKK

Turning to `O=S(=O)(Nc1ncns1)c1ccc2c(-c3ccc(Cl)cc3OC(F)F)cccc2c1` [Example 24], the IC50 under setting [1] is 30 nM.

On to `O=S(=O)(Nc1ccncn1)c1ccc2c(-c3ccc(C(F)(F)F)cc3C3=CCNCC3)cccc2c1` [Example 48], for which the 50% inhibitory concentration (IC50) under setting [1] is 30 nM.

`Cc1c(-c2nccc3cc(S(=O)(=O)Nc4ccncn4)ccc23)ccc2c1cnn2C` [Example 307]: the “Nav1.7 Single Point Data IWQ (at […]) (%)” value was determined as 40%. Besides, under setting [2], the IC50 was greater than 10000 nM.

For `O=S(=O)(Nc1nccs1)c1ccc2c(N3CCCCC3c3cccnc3)ncnc2c1` (centres unmarked) [Example 536, 4-(2-(PYRIDIN-3-YL)PIPERIDIN-1-YL)-N-(THIAZOL-2-YL)QUINAZOLINE-7-SULFONAMIDE], the “Nav1.7 Single Point Data IWQ (at […]) (%)” value stood at 28.3%.

Consider `Cc1cnc(OC2CCCN(C)C2)c(-c2nccc3cc(S(=O)(=O)Nc4ccncn4)ccc23)c1` (centres unmarked) [Example 383, 1-(5-METHYL-2-((1-METHYLPIPERIDIN-3-YL)OXY)PYRIDIN-3-YL)-N-(PYRIMIDIN-4-YL)ISOQUINOLINE-6-SULFONAMIDE], for which the “Nav1.7 Single Point Data IWQ (at […]) (%)” value worked out at 30.2%.

For the compound `Cn1cc(CCOc2nccc3cc(S(=O)(=O)Nc4ccncn4)ccc23)cn1` [Example 305, 1-(2-(1-METHYL-1H-PYRAZOL-4-YL)ETHOXY)-N-(PYRIMIDIN-4-YL)ISOQUINOLINE-6-SULFONAMIDE], the “Nav1.7 Single Point Data IWQ (at […]) (%)” value is listed as 24%. Under setting [2], the 50% inhibitory concentration (IC50) was greater than 10000 nM.

In the case of `O=S(=O)(Nc1ncns1)c1ccc2c(-c3ccc(C(F)(F)F)c(Cl)c3)nccc2c1` [Example 57, 1-(3-CHLORO-4-(TRIFLUOROMETHYL)PHENYL)-N-(1,2,4-THIADIAZOL-5-YL)ISOQUINOLINE-6-SULFONAMIDE], under setting [1], the IC50 is 220 nM.

Take `O=S(=O)(Nc1ccncn1)c1ccc2c(OCC(F)(F)C3CCOCC3)nccc2c1` [Example 299, 1-(2,2-DIFLUORO-2-(TETRAHYDRO-2H-PYRAN-4-YL)ETHOXY)-N-(PYRIMIDIN-4-YL)ISOQUINOLINE-6-SULFONAMIDE]: the “Nav1.7 Single Point Data IWQ (at […]) (%)” value came out at 49%. Moreover, the IC50 under setting [2] is greater than 10000 nM.

For the compound `COc1cc(C(F)(F)F)ccc1-c1nccc2cc(S(=O)(=O)Nc3cc(C(F)(F)F)ncn3)ccc12` [Example 496, 1-(2-METHOXY-4-(TRIFLUOROMETHYL)PHENYL)-N-(6-(TRIFLUOROMETHYL)PYRIMIDIN-4-YL)ISOQUINOLINE-6-SULFONAMIDE], the “Nav1.7 Single Point Data IWQ (at […]) (%)” value was found to be 24.7%.

Regarding `O=S(=O)(Nc1ncns1)c1ccc2c(N3CCOC(c4ccccc4)C3)cccc2c1` (single isomer, unassigned) [14 (isomer 1), 5-(2-phenylmorpholino)-N-(1,2,4-thiadiazol-5-yl)naphthalene-2-sulfonamide], under setting [1], the half-maximal inhibitory concentration (IC50) came to 520 nM.

In the case of `O=S(=O)(Nc1nccs1)c1ccc2c(N3CCN(c4ccc(Cl)c(Cl)c4)CC3)nccc2c1` [Example 247, 1-(4-(3,4-DICHLOROPHENYL)PIPERAZIN-1-YL)-N-(THIAZOL-2-YL)ISOQUINOLINE-6-SULFONAMIDE], the “Nav1.7 Single Point Data IWQ (at […]) (%)” value worked out at 35%.

In the case of `O=S(=O)(Nc1ccncn1)c1ccc2c(OCc3cccnc3)nccc2c1` [Example 128, 1-(PYRIDIN-3-YLMETHOXY)-N-(PYRIMIDIN-4-YL)ISOQUINOLINE-6-SULFONAMIDE], the IC50 under setting [2] was 3960 nM.

Regarding `O=S(=O)(Nc1ccncn1)c1ccc2c(N3CCCC(c4cccc(F)c4)C3)nccc2c1` (centres unmarked) [Example 402, 1-(3-(3-FLUOROPHENYL)PIPERIDIN-1-YL)-N-(PYRIMIDIN-4-YL)ISOQUINOLINE-6-SULFONAMIDE], the “Nav1.7 Single Point Data IWQ (at […]) (%)” value amounted to 36.4%.

Take `COc1cnccc1-c1nccc2cc(S(=O)(=O)Nc3ccncn3)ccc12` [Example 169, 1-(3-METHOXYPYRIDIN-4-YL)-N-(PYRIMIDIN-4-YL)ISOQUINOLINE-6-SULFONAMIDE]: the IC50 under setting [2] worked out at 5170 nM.

Regarding `Cc1nn(-c2ccccc2)nc1COc1nccc2cc(S(=O)(=O)Nc3ccncn3)ccc12` [Example 138, 1-((5-METHYL-2-PHENYL-2H-1,2,3-TRIAZOL-4-YL)METHOXY)-N-(PYRIMIDIN-4-YL)ISOQUINOLINE-6-SULFONAMIDE], the IC50 under setting [2] stood at 3960 nM.

Consider `O=S(=O)(Nc1ccncn1)c1ccc2c(OCc3cccnc3N3CCOCC3)nccc2c1` [Example 298, 1-((2-MORPHOLINOPYRIDIN-3-YL)METHOXY)-N-(PYRIMIDIN-4-YL)ISOQUINOLINE-6-SULFONAMIDE], for which the “Nav1.7 Single Point Data IWQ (at […]) (%)” value was 29%. In addition, the 50% inhibitory concentration (IC50) under setting [2] is greater than 10000 nM.

On to `COc1cc(C(F)(F)F)ccc1-c1ncnc2cc(S(=O)(=O)NC3=NCCS3)ccc12` [Example 520, N-(4,5-DIHYDROTHIAZOL-2-YL)-4-(2-METHOXY-4-(TRIFLUOROMETHYL)PHENYL)QUINAZOLINE-7-SULFONAMIDE], for which the “Nav1.7 Single Point Data IWQ (at […]) (%)” value is less than 20%.

In the case of `COc1cc(Cl)ccc1-c1cccc2cc(S(=O)(=O)Nc3nccs3)ccc12` [Example 46], under setting [1], the IC50 was found to be 36 nM.

In the case of `COc1cc(C(F)(F)F)ccc1-c1nccc2cc(S(=O)(=O)n3ccc(N)n3)ccc12` [Example 390, 1-((1-(2-METHOXY-4-(TRIFLUOROMETHYL)PHENYL)ISOQUINOLIN-6-YL) SULFONYL)-1H-PYRAZOL-3-AMINE], the “Nav1.7 Single Point Data IWQ (at […]) (%)” value stood at 19.8%.

As for `Cc1ccc2c(cnn2C)c1-c1nccc2cc(S(=O)(=O)Nc3ccncn3)ccc12` [Example 309], the “Nav1.7 Single Point Data IWQ (at […]) (%)” value worked out at 27%. For the same compound, under setting [2], the IC50 was greater than 10000 nM.

Turning to `O=S(=O)(Nc1ccncn1)c1ccc2c(OCc3cc4n(n3)CCCO4)nccc2c1` [Example 297, 1-((6,7-DIHYDRO-5H-PYRAZOLO[5,1-B][1,3]OXAZIN-2-YL)METHOXY)-N-(PYRIMIDIN-4-YL)ISOQUINOLINE-6-SULFONAMIDE], the “Nav1.7 Single Point Data IWQ (at […]) (%)” value is listed as 38%. Further, under setting [2], the IC50 was greater than 10000 nM.

With `COc1cc(C(F)(F)F)ccc1-c1c(O)ncc2cc(S(=O)(=O)Nc3nccs3)ccc12` [Example 545, 3-HYDROXY-4-(2-METHOXY-4-(TRIFLUOROMETHYL)PHENYL)-N-(THIAZOL-2-YL)ISOQUINOLINE-7-SULFONAMIDE], the “Nav1.7 Single Point Data IWQ (at […]) (%)” value was 23.7%.

Regarding `O=S(=O)(Nc1ccncn1)c1ccc2c(OCCn3cccc3)nccc2c1` [Example 303, 1-(2-(1H-PYRROL-1-YL)ETHOXY)-N-(PYRIMIDIN-4-YL)ISOQUINOLINE-6-SULFONAMIDE], the “Nav1.7 Single Point Data IWQ (at […]) (%)” value is recorded as 40%. In addition, the IC50 under setting [2] was greater than 10000 nM.

As for `Cc1cnc(OCCN(C)C)c(-c2nccc3cc(S(=O)(=O)Nc4ccncn4)ccc23)c1` [Example 382, 1-(2-(2-(DIMETHYLAMINO)ETHOXY)-5-METHYLPYRIDIN-3-YL)-N-(PYRIMIDIN-4-YL)ISOQUINOLINE-6-SULFONAMIDE], the “Nav1.7 Single Point Data IWQ (at […]) (%)” value is reported as 27.8%.

Take `CN1CC=C(c2cc(C(F)(F)F)ccc2-c2cccc3cc(S(=O)(=O)Nc4nccs4)ccc23)CC1` [Example 78]: the IC50 under setting [1] came to 90 nM.

`O=S(=O)(Nc1nccs1)c1ccc2c(-c3ccc(C(F)(F)F)cc3-c3ccncc3)nccc2c1` [Example 71, 1-(2-(PYRIDIN-4-YL)-4-(TRIFLUOROMETHYL)PHENYL)-N-(THIAZOL-2-YL)ISOQUINOLINE-6-SULFONAMIDE]: the half-inhibitory concentration (IC50) under setting [1] worked out at 20 nM.

In the case of `CC(C)(C#N)c1ccccc1-c1nccc2cc(S(=O)(=O)Nc3nccs3)ccc12` [Example 385, 1-(2-(2-CYANOPROPAN-2-YL)PHENYL)-N-(THIAZOL-2-YL)ISOQUINOLINE-6-SULFONAMIDE], the “Nav1.7 Single Point Data IWQ (at […]) (%)” value amounted to 25.3%.

Regarding `O=S(=O)(Nc1nccs1)c1ccc2c(N3CCCC3c3ccccc3)ncnc2c1` (centres unmarked) [Example 537, 4-(2-PHENYLPYRROLIDIN-1-YL)-N-(THIAZOL-2-YL)QUINAZOLINE-7-SULFONAMIDE], the “Nav1.7 Single Point Data IWQ (at […]) (%)” value was found to be 41.2%.

In the case of `COc1cc(OC)c(-c2nccc3cc(S(=O)(=O)Nc4ncns4)ccc23)c(OC)c1` [Example 60, N-(1,2,4-THIADIAZOL-5-YL)-1-(2,4,6-TRIMETHOXYPHENYL)ISOQUINOLINE-6-SULFONAMIDE], the IC50 under setting [1] amounted to 1560 nM.

Regarding `O=S(=O)(Nc1nccs1)c1ccc2c(N3CCCCC3c3ccccc3)ncnc2c1` (centres unmarked) [Example 538, 4-(2-PHENYLPIPERIDIN-1-YL)-N-(THIAZOL-2-YL)QUINAZOLINE-7-SULFONAMIDE], the “Nav1.7 Single Point Data IWQ (at […]) (%)” value is on record as 31.2%.

For `COc1ccncc1-c1nccc2cc(S(=O)(=O)Nc3ccncn3)ccc12` [Example 170, 1-(4-METHOXYPYRIDIN-3-YL)-N-(PYRIMIDIN-4-YL)ISOQUINOLINE-6-SULFONAMIDE], the IC50 under setting [2] came to 2650 nM.

On to `O=S(=O)(Nc1ccncn1)c1ccc2c(-c3ccc(N4CCCCC4)c(F)c3F)nccc2c1` [Example 432, 1-(2,3-DIFLUORO-4-(PIPERIDIN-1-YL)PHENYL)-N-(PYRIMIDIN-4-YL)ISOQUINOLINE-6-SULFONAMIDE], for which the “Nav1.7 Single Point Data IWQ (at […]) (%)” value worked out at 34.6%.

`O=S(=O)(Nc1ccncn1)c1ccc2c(OCCCc3cn[nH]c3C(F)(F)F)nccc2c1` [Example 302, N-(PYRIMIDIN-4-YL)-1-(3-(5-(TRIFLUOROMETHYL)-1H-PYRAZOL-4-YL)PROPOXY)ISOQUINOLINE-6-SULFONAMIDE]: the “Nav1.7 Single Point Data IWQ (at […]) (%)” value is given as 20%. Further, the IC50 under setting [2] was greater than 10000 nM.

On to `COc1cc(Cl)ccc1-c1cccc2cc(S(=O)(=O)Nc3ncco3)ccc12` [Example 45], for which, under setting [1], the IC50 was found to be 225 nM.

As to `O=S(=O)(Nc1ncns1)c1ccc2c(-c3ccc(C(F)(F)F)cc3Cl)nccc2c1` [Example 56, 1-(2-CHLORO-4-(TRIFLUOROMETHYL)PHENYL)-N-(1,2,4-THIADIAZOL-5-YL)ISOQUINOLINE-6-SULFONAMIDE], the IC50 under setting [1] came to 60 nM.

Turning to `COc1cc(C(F)(F)F)ccc1-c1nccc2cc(S(=O)(=O)Nc3cnccn3)ccc12` [Example 186, 1-(2-METHOXY-4-(TRIFLUOROMETHYL)PHENYL)-N-(PYRAZIN-2-YL)ISOQUINOLINE-6-SULFONAMIDE], the IC50 under setting [2] was 2340 nM and 370 nM.
